Assay results as given in paper PMC6134994, “Discovery of Potent Disheveled/Dvl Inhibitors Using Virtual Screening Optimized With NMR-Based Docking Performance Index” (Frontiers in Pharmacology, 2018).

What was measured:
[1] = biological target: T1, mZO1-PDZ1 (mouse ZO-1 first PDZ domain) (Mus musculus, UniProt P39447); test: NMR chemical shift perturbation (1H-15N HSQC)
T1 construct: gene Tjp1
T1 sequence (P39447 18-110): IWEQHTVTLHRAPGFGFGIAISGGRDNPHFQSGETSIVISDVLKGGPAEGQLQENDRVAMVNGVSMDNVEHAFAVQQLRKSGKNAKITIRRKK

[2] = biological target: T2, hDvl1-PDZ (human Dvl1 PDZ domain) (Homo sapiens, UniProt O14640, C338A/W339T); test: NMR chemical shift perturbation at […] equivalents (averaged normalized shift); type: binding
T2 construct: PDZ domain, residues 246–340
T2 sequence (O14640 246-340 C338A/W339T): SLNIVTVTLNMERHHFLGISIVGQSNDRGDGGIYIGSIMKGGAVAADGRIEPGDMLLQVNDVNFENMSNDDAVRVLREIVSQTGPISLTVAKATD

Δδave/ppm [2] [ppm]	SMILES	NMR chemical shift perturbation (1H-15N HSQC) [1]
–	O=C(Cc1ccccc1)Nc1cccc(C(=O)Nc2ccccc2C(=O)O)c1 [CalBioChem-322338]	residues surrounding the canonical binding site of mZO1-PDZ1 showed substantial CSP upon CalBioChem-322338
0.044	CC(=O)C(=NNc1cccc(S(=O)(=O)Nc2ccccc2C(=O)O)c1)C(=O)c1ccccc1 [NPL-3009]	–
